Read-outs that look alike come from different tables or passages of the source.
Tests used:
Assay in all cases: 3D clonogenic assay (PDX)
Format in all cases: cell-based, human
[1] = system: GXF 97; conditions: GXF 97, Gastric; for IC50: Homo sapiens
Procedure: (§1) The anti-tumor efficacy of S1 in the patient-derived tumor xenograft (PDX) tumor panel was assessed, where the efficacy of S1 in PDX tumor panel in the 96-well format, in 10 concentrations in duplicate was performed. Colony formation of tumor cell suspensions in a soft-agar matrix was observed and quantified. The output is IC50 values and dose response-relationships based on number of colonies in control and treatment wells, as identified by an automated image analysis algorithm. Stock solution of S1 was prepared in 100% DMSO at 10 mM concentration (stored at -20°C) and reused for each experiment. Compound final test concentrations: Dilution series ½ i.e.: 50µM, 15, 5, 1.5, 0.5, 0.15, 0.05, 0.015, 0.005 and 0.0015.
(§2) Tumor xenografts (also referred to as patient-derived tumor xenografts) were passaged as subcutaneous xenografts in NMRI nu/nu mice. Tumor xenograft were removed from mice under sterile conditions, mechanically disaggregated and subsequently incubated with an enzyme cocktail consisting of collagenase type IV (41 U/mL), DNase I (125 U/mL), hyaluronidase type III (100 U/mL) and dispase II (1.0 U/mL) in RPMI 1640 medium at 37°C for 60 - 120 minutes. Cells were passed through sieves of 100 µm and 40 µm mesh size and washed with RPMI 1640 medium. The percentage of viable cells was determined in a Neubauer-hemocytometer using trypan blue exclusion. Aliquots of the cells were frozen down, and stored in liquid nitrogen.
(§3) The clonogenic assay test was carried out in 96 well plate format. For each test a frozen aliquot of tumor cells prepared from tumor xenografts was thawed and assay plates were prepared as follows: each test well contained 3 layers of equal volume, 2 layers of semi-solid medium (bottom and top layer), and one layer of medium supernatant, with or without test compound. The bottom layer consisted of 0.05 mL/well Iscove's Modified Dulbecco's Medium (Invitrogen), supplemented with 20% (v/v) fetal calf serum (Sigma), 0.01% (w/v) gentamicin (Invitrogen) and 0.75% (w/v) agar (BD Biosciences). Tumor cells were added to 0.05 mL of the same culture medium supplemented with 0.4% (w/v) agar and plated onto the bottom layer. After 24 h, test compounds were added after serial dilution in DMSO and transfer in cell culture medium, and left on the cells for the duration of the experiment (continuous exposure, 0.05 mL drug overlay). Every dish included six untreated control wells and drug-treated groups in duplicate at 10 concentrations. Cultures were incubated at 37 °C and 7.5% CO2 in a humidified atmosphere for 8 to 13 days and monitored closely for colony growth using an inverted microscope. Within this period, ex vivo tumor growth lead to the formation of colonies with a diameter of >50 µm. At the time of maximum colony formation, counts were performed with an automatic image analysis system. 24 h prior to evaluation, vital colonies were stained with a sterile aqueous solution of 2-(4-iodophenyl)-3-(4-nitrophenyl)-5-phenyltetrazolium chloride (1 mg/mL, 100 µL/well). Sigmoidal concentration-response curves were fitted to the data points obtained for each tumor model using 4 parameter non-linear curve fit (Oncotest Warehouse Software). IC50 values are reported as relative IC50 values, being the concentration of test compound that give a response (inhibition of colony formation/viability) half way between the top and bottom plateau of the sigmoidal concentration-response curve (inflection point of the curve), or as absolute IC50 values, being the concentration of test compound at the intersection of the concentration-response curves with T/C = 50%. For calculation of mean IC50 values the geometric mean was used. Results are presented as mean graph plots or heat maps (individual IC50 values relative to the geometric mean IC50 value) over all cell lines as tested.

[2] = system: LXFA 923; conditions: LXFA 923, Lung Adeno; for IC50: Homo sapiens
Procedure: as §1, §2, §3

[3] = system: LXFA 289; conditions: LXFA 289, Lung Adeno; for IC50: Homo sapiens
Procedure: as §1, §2, §3

[4] = system: BXF 439; conditions: BXF 439, Bladder; for IC50: Homo sapiens
Procedure: as §1, §2, §3

[5] = system: PAXF 1872; conditions: PAXF 1872, Pancreas; for IC50: Homo sapiens
Procedure: as §1, §2, §3

[6] = system: PRXF MRI-H-1579; conditions: PRXF MRI-H-1579, Prostate; for IC50: Homo sapiens
Procedure: as §1, §2, §3

[7] = system: BXF 1218; conditions: BXF 1218, Bladder; for IC50: Homo sapiens
Procedure: as §1, §2, §3

[8] = system: BXF 1036; conditions: BXF 1036, Bladder; for IC50: Homo sapiens
Procedure: as §1, §2, §3

[9] = system: LXFA 1584; conditions: LXFA 1584, Lung Adeno; for IC50: Homo sapiens
Procedure: as §1, §2, §3

[10] = system: GXA 3023; conditions: GXA 3023, Asian Gastric; for IC50: Homo sapiens
Procedure: as §1, §2, §3

[11] = system: MAXF 713; conditions: MAXF 713, Breast; for IC50: Homo sapiens
Procedure: as §1, §2, §3

[12] = system: LXFA 1647; conditions: LXFA 1647, Lung Adeno; for IC50: Homo sapiens
Procedure: as §1, §2, §3

O[C@H](c1cc(-c2ccc(Cl)cc2)nc2ccccc12)[C@@H]1CCCCN1 [S1, (R)-(2-(4-chlorophenyl)quinolin-4-yl)((S)-piperidin-2-yl)methanol]
b (bottom plateau of concentration-effect curve) [1]: 20
t (top plateau of concentration-effect curve) [1]: 97
IC50 ([1]; read-out: abs. IC50): 6.21 µM
IC50 ([1]; read-out: rel. IC50): 5.71 µM
IC50 ([2]; read-out: abs. IC50): 8.55 µM
IC50 ([2]; read-out: rel. IC50): 8.44 µM
b (bottom plateau of concentration-effect curve) [2]: 21
t (top plateau of concentration-effect curve) [2]: 101
IC50 ([3]; read-out: abs. IC50): 45.4 µM
IC50 ([3]; read-out: rel. IC50): 39.3 µM
b (bottom plateau of concentration-effect curve) [3]: 21
t (top plateau of concentration-effect curve) [3]: 94
b (bottom plateau of concentration-effect curve) [4]: 34
t (top plateau of concentration-effect curve) [4]: 95
IC50 ([4]; read-out: abs. IC50): 14 µM
IC50 ([4]; read-out: rel. IC50): 12.8 µM
IC50 ([5]; read-out: abs. IC50): 9.3 µM
IC50 ([5]; read-out: rel. IC50): 8.89 µM
b (bottom plateau of concentration-effect curve) [5]: 42
t (top plateau of concentration-effect curve) [5]: 89
IC50 ([6]; read-out: abs. IC50): 8.94 µM
IC50 ([6]; read-out: rel. IC50): 8.76 µM
b (bottom plateau of concentration-effect curve) [6]: 21
t (top plateau of concentration-effect curve) [6]: 112
b (bottom plateau of concentration-effect curve) [7]: 15
t (top plateau of concentration-effect curve) [7]: 100
IC50 ([7]; read-out: abs. IC50): 6.16 µM
IC50 ([7]; read-out: rel. IC50): 6.02 µM
b (bottom plateau of concentration-effect curve) [8]: 30
t (top plateau of concentration-effect curve) [8]: 95
IC50 ([8]; read-out: abs. IC50): 5.3 µM
IC50 ([8]; read-out: rel. IC50): 5 µM
IC50 ([9]; read-out: abs. IC50): 7.81 µM
IC50 ([9]; read-out: rel. IC50): 6.79 µM
b (bottom plateau of concentration-effect curve) [9]: 31
t (top plateau of concentration-effect curve) [9]: 95
b (bottom plateau of concentration-effect curve) [10]: 30
t (top plateau of concentration-effect curve) [10]: 90
IC50 ([10]; read-out: abs. IC50): 5.26 µM
IC50 ([10]; read-out: rel. IC50): 5.02 µM
IC50 ([11]; read-out: abs. IC50): 9.16 µM
IC50 ([11]; read-out: rel. IC50): 8.6 µM
b (bottom plateau of concentration-effect curve) [11]: 43
t (top plateau of concentration-effect curve) [11]: 108
IC50 ([12]; read-out: abs. IC50): 12.1 µM
IC50 ([12]; read-out: rel. IC50): 11.9 µM
b (bottom plateau of concentration-effect curve) [12]: 13
t (top plateau of concentration-effect curve) [12]: 98

Source: patent publication EP3064205A1, “Therapeutic use of isomeric forms of 2-(4-chlorophenyl)quinolin-4-yl)(piperidin-2-yl)methanol” (Glionova AB, priority 2015, dated 2016)
